Results published in ChEMBL document CHEMBL1201862, “PubChem BioAssay data set” (2004).
Values belong to the molecule of their own block, whether it stands above or below them. Active and inactive are the calls of the source.

Experiments:
Ephrin type-A receptor 4 = Ephrin type-A receptor 4 (Mus musculus, UniProt Q03137); experiment: EphA4 ligand-binding antagonists – biochemical, colorimetric, mouse EphA4, primary screen (AID 689); type: functional
[1] = molecular target: Metabotropic glutamate receptor 5 (Rattus norvegicus, UniProt P31424); experiment: Identification of a glycine sulfonamide based non-MPEP site positive allosteric potentiator (PAM) of mGlu5 (calcium_assay).; type: functional
Metabotropic glutamate receptor 5, sequence (P31424 whole entry): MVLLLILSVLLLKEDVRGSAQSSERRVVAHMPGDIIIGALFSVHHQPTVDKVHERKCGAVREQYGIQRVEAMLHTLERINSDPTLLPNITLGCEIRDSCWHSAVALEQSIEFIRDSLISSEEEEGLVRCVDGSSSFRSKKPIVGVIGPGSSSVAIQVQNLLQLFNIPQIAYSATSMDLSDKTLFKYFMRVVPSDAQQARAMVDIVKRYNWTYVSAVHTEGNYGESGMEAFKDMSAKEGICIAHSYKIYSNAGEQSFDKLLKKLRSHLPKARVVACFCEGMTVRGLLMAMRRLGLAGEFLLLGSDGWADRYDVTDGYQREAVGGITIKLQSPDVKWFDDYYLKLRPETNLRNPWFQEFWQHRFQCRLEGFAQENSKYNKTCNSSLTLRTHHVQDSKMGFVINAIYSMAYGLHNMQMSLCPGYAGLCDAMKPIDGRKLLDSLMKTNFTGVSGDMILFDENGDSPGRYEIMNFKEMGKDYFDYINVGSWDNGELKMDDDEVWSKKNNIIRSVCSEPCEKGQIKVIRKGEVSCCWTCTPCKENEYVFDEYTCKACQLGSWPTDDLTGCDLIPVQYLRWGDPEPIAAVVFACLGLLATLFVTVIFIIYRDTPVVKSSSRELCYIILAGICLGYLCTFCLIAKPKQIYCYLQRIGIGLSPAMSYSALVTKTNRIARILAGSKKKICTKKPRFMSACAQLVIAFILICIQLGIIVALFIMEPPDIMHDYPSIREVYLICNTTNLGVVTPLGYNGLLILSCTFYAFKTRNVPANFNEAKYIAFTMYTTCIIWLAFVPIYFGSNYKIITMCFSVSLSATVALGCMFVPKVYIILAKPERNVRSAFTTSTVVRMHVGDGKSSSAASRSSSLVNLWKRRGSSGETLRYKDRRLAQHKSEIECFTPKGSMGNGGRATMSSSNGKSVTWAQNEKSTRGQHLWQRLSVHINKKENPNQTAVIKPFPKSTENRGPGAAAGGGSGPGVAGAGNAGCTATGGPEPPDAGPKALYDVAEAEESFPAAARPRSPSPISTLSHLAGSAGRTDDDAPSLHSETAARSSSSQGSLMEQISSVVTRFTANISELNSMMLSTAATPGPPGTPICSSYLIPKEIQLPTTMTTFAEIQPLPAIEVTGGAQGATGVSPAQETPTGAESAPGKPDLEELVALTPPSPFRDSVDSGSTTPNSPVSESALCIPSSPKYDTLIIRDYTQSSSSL

[2] = liver cell line viability loss – HepG2, luminescence plate reader, powder samples, set 2, cytotoxicity control, dose response (AID 651860); type: functional, cell-based
[3] = kidney cell line viability loss – HEK293T, luminescence plate reader, powder samples, set 4, cytotoxicity control, dose response (AID 651863); type: functional, cell-based; details: HEK293
[4] = mouse embryonic fibroblast toxicity – cell-based, plate reader, dry powder, set 2, cytotoxicity control, dose response (AID 652280); type: functional; details: NIH3T3
[5] = T. cruzi growth inhibition in host cells, dose response, cell-based, plate reader, dry powder, set 2 (AID 652275); type: functional
[6] = anti-trypanosomal activity in BESM host cells – imaging, CA-I/72 strain, bovine embryo skeletal muscle, dry powder, dose response (AID 651885); type: functional, cell-based
[7] = molecular target: 1-phosphatidylinositol 4,5-bisphosphate phosphodiesterase gamma-1 (Homo sapiens, UniProt P19174); experiment: Counterscreen for inhibitors of phospholipase C isozymes (PLC-B3): Fluorescence-based biochemical high throughput dose response assay to identify inhibitors of phospholipase C isozymes (PLC-gamma1).
[8] = molecular target: 1-phosphatidylinositol 4,5-bisphosphate phosphodiesterase beta-3 (Homo sapiens, UniProt Q01970); experiment: Fluorescence-based biochemical high throughput dose response assay to identify inhibitors of phospholipase C isozymes (PLC-B3).
1-phosphatidylinositol 4,5-bisphosphate phosphodiesterase beta-3, sequence (Q01970 whole entry): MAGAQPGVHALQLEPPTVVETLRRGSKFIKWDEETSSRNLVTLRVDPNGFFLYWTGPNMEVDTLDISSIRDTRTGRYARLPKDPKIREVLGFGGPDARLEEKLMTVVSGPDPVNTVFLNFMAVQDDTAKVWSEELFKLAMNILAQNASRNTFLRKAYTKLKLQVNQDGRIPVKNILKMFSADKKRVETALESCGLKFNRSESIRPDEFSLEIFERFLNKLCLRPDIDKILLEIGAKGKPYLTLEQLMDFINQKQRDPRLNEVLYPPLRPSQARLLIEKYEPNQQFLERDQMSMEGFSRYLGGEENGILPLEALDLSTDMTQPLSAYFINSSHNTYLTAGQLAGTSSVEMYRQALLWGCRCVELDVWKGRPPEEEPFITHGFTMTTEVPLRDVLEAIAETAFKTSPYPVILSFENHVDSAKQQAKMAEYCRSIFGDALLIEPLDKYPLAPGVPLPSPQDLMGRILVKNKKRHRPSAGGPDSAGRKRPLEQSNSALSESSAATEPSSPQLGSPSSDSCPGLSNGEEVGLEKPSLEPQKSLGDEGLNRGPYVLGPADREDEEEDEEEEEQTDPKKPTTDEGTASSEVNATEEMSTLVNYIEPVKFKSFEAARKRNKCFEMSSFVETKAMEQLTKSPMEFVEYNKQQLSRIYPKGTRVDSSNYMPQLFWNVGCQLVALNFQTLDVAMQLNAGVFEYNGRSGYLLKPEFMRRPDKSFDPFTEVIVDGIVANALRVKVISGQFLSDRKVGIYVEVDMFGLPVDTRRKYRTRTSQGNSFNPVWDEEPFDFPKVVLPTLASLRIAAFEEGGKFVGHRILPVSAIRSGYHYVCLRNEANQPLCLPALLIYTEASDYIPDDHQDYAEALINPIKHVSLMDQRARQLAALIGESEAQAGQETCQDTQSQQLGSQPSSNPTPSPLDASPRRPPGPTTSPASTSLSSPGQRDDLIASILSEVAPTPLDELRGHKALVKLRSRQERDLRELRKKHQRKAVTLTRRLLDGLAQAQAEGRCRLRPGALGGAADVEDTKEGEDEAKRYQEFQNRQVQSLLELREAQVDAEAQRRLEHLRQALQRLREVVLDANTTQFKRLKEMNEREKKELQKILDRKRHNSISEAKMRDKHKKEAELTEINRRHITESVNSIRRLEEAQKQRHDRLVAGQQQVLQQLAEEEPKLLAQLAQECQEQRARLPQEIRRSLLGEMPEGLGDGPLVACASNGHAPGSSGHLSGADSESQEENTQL

[9] = reduction of Shn3 3'UTR-driven luciferase in osteoblasts – cell-based, Clone20 osteoblasts, firefly luciferase, cherry-picked, dose response (AID 624132); type: functional;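 note: firefly luciferase luminescence from reporter carrying the Shn3 3'UTR in osteoblasts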
[10] = non-specific 3'UTR reporter inhibition in Clone20-Shn3RL – cell-based, Renilla luciferase, cherry-picked, counter-screen for Shn3 inhibitor project, dose response (AID 624133); type: functional
[11] = Shn3 3'UTR reporter signal decrease – cell-based, Clone20 osteoblasts, firefly luciferase, cherry-pick, set 2, Schnurri-3 inhibitor project, dose response (AID 720490); type: functional;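 note: actives lower the luminescence signal as inhibitors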
[12] = Late stage assay provider results from the probe development effort to identify inhibitors of the Plasmodium falciparum M18 Aspartyl Aminopeptidase (M18AAP): radiolabel-based cell-based dose response assay to identify compounds that inhibit P. falciparum growth in RBCs, Set 2..; type: functional
Paired box protein Pax-8 = Paired box protein Pax-8 (Homo sapiens, UniProt Q06710); experiment: PAX8 transcriptional activity inhibition in RMG-I – RMG-I cells, luciferase, cherry-pick, dose response (AID 687027); type: functional, cell-based;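 note: luciferase reporter driven by Pax8 target thyroperoxidase promoter measured by SteadyGlo luminescence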
Paired box protein Pax-8, sequence (Q06710 whole entry): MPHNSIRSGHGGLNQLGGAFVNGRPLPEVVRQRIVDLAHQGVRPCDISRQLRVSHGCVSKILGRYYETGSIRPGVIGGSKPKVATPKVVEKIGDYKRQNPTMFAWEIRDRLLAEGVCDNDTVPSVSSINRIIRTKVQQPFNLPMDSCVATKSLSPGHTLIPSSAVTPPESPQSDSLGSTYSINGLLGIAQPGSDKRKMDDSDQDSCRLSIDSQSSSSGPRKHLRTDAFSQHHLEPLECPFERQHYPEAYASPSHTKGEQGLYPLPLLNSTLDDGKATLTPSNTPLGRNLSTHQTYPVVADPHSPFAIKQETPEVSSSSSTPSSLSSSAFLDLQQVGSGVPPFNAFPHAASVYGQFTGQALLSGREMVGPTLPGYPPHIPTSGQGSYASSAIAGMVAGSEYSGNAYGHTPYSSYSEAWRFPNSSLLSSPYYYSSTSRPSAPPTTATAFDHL

[13] = toxicity toward immortalized ovarian surface epithelium – cell-based, plate reader, dry powder samples, cytotoxicity control for PAX8 inhibitor project, dose response (AID 743045); type: functional
[14] = OVCAR-3 cell viability loss – plate reader, dry powder samples, PAX8 inhibitor project, dose response (AID 743044); type: functional, cell-based
[15] = A549 cell cytotoxicity, dose response, cytotoxicity control, plate reader, cherry-pick, antagonist series (AID 743412); type: functional, cell-based
[16] = toxicity toward HepG2 liver cells – cell-based, plate reader, cherry-pick, antagonist series, cytotoxicity control, dose response (AID 743416); type: functional
[17] = IGROV1 cell killing – plate reader, dry powder samples, PAX8 inhibitor project, dose response (AID 743043); type: functional, cell-based; details: IGROV-1
[18] = blockers of bursicon-stimulated LGR2 cAMP reporter – cell-based, HEK293, CRE-luciferase reporter, cherry pick, set 2, dose response (AID 743343); type: functional;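 note: transfected cells were stimulated with diluted bursicon conditioned medium after compound addition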
[19] = blockade of melanocortin 4 receptor signaling – cell-based, plate reader, cherry pick, counter-screen for LGR2 antagonist project, dose response (AID 743444); type: functional;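 note: transfected HEK 293 cells stimulated with alpha-MSH peptide; potency of inhibitors of the alpha-MSH evoked signal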
[20] = OVCAR8 cell viability loss – plate reader, dry powder samples, PAX8 project, dose response (AID 743197); type: functional, cell-based; details: OVCAR-8
[21] = viability loss in HEK293 cells – cell-based, plate reader, cherry-picked samples, cytotoxicity control, dose response (AID 743446); type: functional
[22] = P. falciparum Dd2 growth inhibitors, dose response, SYBR Green, cherry-picked samples (AID 1159567); type: functional, cell-based

Ephrin type-A receptor 4, sequence (Q03137 whole entry): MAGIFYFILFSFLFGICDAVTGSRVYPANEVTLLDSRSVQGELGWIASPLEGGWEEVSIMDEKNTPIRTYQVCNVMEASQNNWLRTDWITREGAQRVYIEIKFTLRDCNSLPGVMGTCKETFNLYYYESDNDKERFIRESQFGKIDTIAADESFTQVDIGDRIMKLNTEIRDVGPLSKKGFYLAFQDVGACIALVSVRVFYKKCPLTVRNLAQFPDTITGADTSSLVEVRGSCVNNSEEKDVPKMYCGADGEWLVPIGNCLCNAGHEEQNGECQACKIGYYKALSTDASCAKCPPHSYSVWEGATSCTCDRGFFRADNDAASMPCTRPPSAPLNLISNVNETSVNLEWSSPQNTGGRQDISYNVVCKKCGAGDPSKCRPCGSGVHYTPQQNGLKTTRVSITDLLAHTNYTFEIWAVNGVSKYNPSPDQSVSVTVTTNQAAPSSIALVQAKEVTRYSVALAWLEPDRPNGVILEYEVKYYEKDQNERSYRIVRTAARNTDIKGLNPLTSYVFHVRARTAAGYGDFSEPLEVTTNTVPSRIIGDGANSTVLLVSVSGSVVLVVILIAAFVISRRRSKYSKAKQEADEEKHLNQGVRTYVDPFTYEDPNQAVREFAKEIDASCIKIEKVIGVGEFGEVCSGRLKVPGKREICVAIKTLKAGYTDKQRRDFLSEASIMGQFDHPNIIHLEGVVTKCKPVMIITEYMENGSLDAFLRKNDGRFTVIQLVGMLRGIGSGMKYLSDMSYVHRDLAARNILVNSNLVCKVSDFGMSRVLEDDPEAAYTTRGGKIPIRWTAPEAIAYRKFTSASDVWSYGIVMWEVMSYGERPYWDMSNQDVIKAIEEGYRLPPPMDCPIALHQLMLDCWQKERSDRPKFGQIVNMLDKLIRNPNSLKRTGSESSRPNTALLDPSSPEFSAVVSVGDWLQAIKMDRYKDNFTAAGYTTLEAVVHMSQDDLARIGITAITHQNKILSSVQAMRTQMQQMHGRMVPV

- IC50 (Ephrin type-A receptor 4): > 100 µM (not active)
- EC50 [1]: 0.051 µM
Compound: CS(=O)(=O)N(CC(=O)Nc1cccc(Cl)c1)c1ccccc1Cl

Compound: Cc1ccc(S(=O)(=O)NC2=C/C(=N\[C@@H](C)C(=O)OC(C)(C)C)C(=O)c3ccccc32)c(C)c1
- AC50 [2]: 43 µM (active)
- AC50 [3]: 16.3 µM (active)

Compound: C[C@H]1CN([C@@H](C)CO)C(=O)c2cccc(NC(=O)c3ccncc3)c2O[C@@H]1CN(C)Cc1ccc(Cl)c(Cl)c1
- AC50 [4]: 13.2 µM (active)
- AC50 [5]: 0.00674 µM (active)
- IC50 [6]: 0.00211 µM (active)

- IC50 [7]: > 122 µM (inactive)
- IC50 [8]: > 122 µM (inactive)
Compound: O=[N+]([O-])c1ccc2[nH]cc(S(=O)(=O)N3CCN(c4cccc(Cl)c4)CC3)c2c1

Compound: O=C(COC(=O)c1[nH]nc2ccccc12)Nc1ccc(S(=O)(=O)N2CCCC2)cc1
- AC50 [9]: 5.33 µM (active)
- AC50 [10]: 36.1 µM (active)
- AC50 [11]: 31.8 µM (active)

Compound: Oc1ccc(CCCNc2c3ccccc3nc3ccccc23)cc1O
- IC50 [12]: 3.7 µM (active)

Compound: Cn1cnc(S(=O)(=O)N2C[C@@H]3N[C@H](C2)[C@@H]3c2ccc(-c3ccccc3F)cc2)c1
- AC50 (Paired box protein Pax-8): 4.26 µM (active)
- AC50 [13]: 25.9 µM (active)
- AC50 [14]: 22 µM (active)
- AC50 [15]: 11 µM (active)
- AC50 [16]: 28.2 µM (active)
- AC50 [17]: 27.1 µM (active)
- AC50 [18]: 18.9 µM (active)
- AC50 [19]: 6.25 µM (active)
- AC50 [20]: 24.5 µM (active)
- AC50 [21]: > 52 µM (inactive)
- AC50 [22]: 3.72 µM (active)
